Results taken from ChEMBL document CHEMBL3045424, “Synthesis and antimalarial activity evaluation of some isoquine analogues” (2011).

Experiments:
Plasmodium falciparum [1] = assay: Antimalarial activity against chloroquine-sensitive Plasmodium falciparum 3D7 infected O positive human red blood cells assessed as dead rings and schizonts at 50 ug/ml after 40 hr by Giemsa staining; type: functional
Plasmodium falciparum [2] = assay: Antimalarial activity against chloroquine-sensitive Plasmodium falciparum 3D7 infected O positive human red blood cells assessed as dead rings and schizonts at 0.4 ug/ml after 40 hr by Giemsa staining; type: functional

SMILES | Activity (Plasmodium falciparum [1]) [%] | Activity (Plasmodium falciparum [2]) [%]
Oc1cc(Nc2ccnc3cc(Cl)ccc23)ccc1CNc1ccc(Br)cc1F | 6.5 | 
Oc1ccc(NCc2ccc(Nc3ccnc4cc(Cl)ccc34)cc2O)cc1 | 28.5 | 
Oc1cc(Nc2ccnc3cc(Cl)ccc23)ccc1CNc1ccc(F)cc1 | 25.5 | 
Oc1cc(Nc2ccnc3cc(Cl)ccc23)ccc1CNC1CCNCC1 | 33 | 
O=C(O)c1ccc(NCc2ccc(Nc3ccnc4cc(Cl)ccc34)cc2O)cc1 | 34 | 
CCN(CC)CCCC(C)Nc1ccnc2cc(Cl)ccc12 (stereo not drawn) [CHLOROQUINE] |  | 68.5
OCCNCc1ccc(Nc2ccnc3cc(Cl)ccc23)cc1O | 36.5 | 
NC(=O)NCc1ccc(Nc2ccnc3cc(Cl)ccc23)cc1O | 24 | 
